Source: BindingDB's records for doi:10.1021/jm960331f (Oregon State University, 1996)

Test: determined in L-pipecolate oxidase from Rehsus monkey

- Ki: 130 µM
SMILES: O=C(O)[C@@H]1CCCCN1 [(S)-pipecolate]
